Where a SMILES comes first, the peptide text is derived from it. Bridges are numbered along the chain shown (N, C = ends).
Assay: SS bond reduction by DTT monitored by 1H NMR
Type: physicochemical
Settings: 1.7 mM protein, twofold excess of DTT, 15 °C; for DTT: Conversion rate / DTT: Elapsed time to steady state: pH 7; for DTT: t1/2 of reduction: pH 7, calculated from k1 (Eq. 12); for DTT: k1: pH 7, parameter estimation (phase 1 data)
Experimental: An appropriate reduction protocol was required to unambiguously determine the 3D structures of the above‐introduced pure reduced states. Thus, in agreement with the above discussion, only mild conditions (15 °C and twofold molar excess of […]) were used for the reduction of the four different miniproteins. Determining the structural properties and reduction rates under the same conditions allowed us to elucidate the basis of the observed differences in the reduction rates. […] It appears as if “cutting back” on the α‐helical segment strongly affects the SS bond reducibility, even though the SS bonds of all four models are near the surfaces (Figure 7 A). To our great surprise, we recorded three orders of magnitude differences between the reduction rate constants (Table 3). Whereas the reduction of E2_SS is still extremely fast, tE2_SS/1/2 <≈1 min, that of E5_SS occurs on the timescale of minutes: tE5_SS/1/2 ≈14 min. […] The conversion rate was close to complete for the shorter peptide of E2_SS, whereas the reduction of E19_SS was only 88 % complete. The kinetic parameters of all four model proteins were determined by using a twofold molar excess of DTT, at pH 7, and T=15 °C.
Monitoring reduction kinetics: Peptide samples were prepared between 0.8 and 1.8 mM in 50 mM NaH2PO4–Na2HPO4 buffer (600 μL, pH 6.95), with 10 % D2O. A 0.1 M solution of NaOH was used to set the pH to 7. Sodium trimethylsilylpropanesulfonate (DSS) was added as the internal proton reference standard, set to δ=0.0 ppm under all conditions. ^1H,^1H 2D homonuclear spectra were recorded for the oxidized peptide; thereafter, upon the addition of a different excess of 0.5 M TCEP or DTT, reduction was observed by recording a series of 1D ^1H spectra (ns=64 or 128 scans). Finally, at the end point, ^1H,^1H homonuclear 2D spectra were recorded on the reduced peptide. Data sets were processed by using TopSpin 3.2 software. The conversion rate was determined by using the relative integral of the Trp Hϵ1 signal in the oxidized (IntOX) and reduced (IntRED) form. Each integral was normalized to the integral of DSS. The concentrations were determined by the ratio of the oxidized and reduced integrals and the initial protein concentration.
Parameter estimation: Kinetic parameter estimation was based on the integral of selected NMR signals considered to be proportional to the concentration of the relevant species. The mechanism taken into account is that given by Equations (8), (9), (10), (11):(8) SS+Red→k12SH+Ox (9) 2SH+O2→k2SS (10) [drawing 1] (11) [drawing 2]
in which SS is the […] model protein with an intramolecular S−S bond; 2 SH is the same protein with the S−S bond reduced to two −SH groups; and the symbol Ø means a different phase from that of the reaction mixture, that is, the polymer aggregate as a sink in the first case and the gas phase as a source in the second case.
For parameter estimation, the COPASI 4.16 (Build 104) Biochemical System Simulator software (http://copasi.org/) was used, with the parameter estimation option of the Levenberg–Marquardt method.
To determine the half‐life and initial concentration of the SS species, a kinetic analysis of the temporal evolution of the reactions was performed. […] From the kinetic analysis, the initial concentration of oxygen ([O2]0) could also be estimated, except for one case in which the uncertainty of this parameter was very large, due to the lack of sufficient experimental data.
Because reduction follows second‐order kinetics, the half‐life (t 1/2) of model proteins also depends on the actual concentration of the RA in the reaction mixture [Eq. (12):(12) t1/2=1/k1(cRed,0-cSS,0)ln2-cSS,0/cRed,0

Row | DTT: Conversion rate | DTT: Elapsed time to steady state | DTT: t1/2 of reduction | SMILES | DTT: k1
1 | 100% | 5 h | 1.03 h | CC[C@H](C)[C@@H]1NC(=O)[C@H](Cc2ccc(O)cc2)NC(=O)[C@H](CC(C)C)NC(=O)[C@H](CCCNC(=N)N)NC(=O)[C@H](C(C)C)NC(=O)[C@@H](N)CSSC[C@@H](C(=O)O)NC(=O)[C@@H]2CCCN2C(=O)[C@@H]2CCCN2C(=O)[C@@H]2CCCN2C(=O)[C@H](CCCNC(=N)N)NC(=O)CNC(=O)[C@H](CO)NC(=O)[C@H](CO)NC(=O)[C@@H]2CCCN2C(=O)CNC(=O)CNC(=O)[C@H](CC(=O)O)NC(=O)[C@H](CCCCN)NC(=O)[C@H](CC(C)C)NC(=O)[C@H](Cc2c[nH]c3ccccc23)NC(=O)[C@H](CCC(N)=O)NC1=O [E2_SS] (H-CVRLYIQWLKDGGPSSGRPPPC-OH; disulfide 1-22) | 0.0673 M⁻¹ s⁻¹
2 | 95% | 9 to 10 h | 1.92 h | CC[C@H](C)[C@@H]1NC(=O)[C@H](Cc2ccc(O)cc2)NC(=O)[C@H](CC(C)C)NC(=O)[C@H](CCCNC(=N)N)NC(=O)[C@H](C(C)C)NC(=O)[C@@H](NC(=O)[C@H](CCC(=O)O)NC(=O)[C@H](CCC(=O)O)NC(=O)[C@@H](N)CCC(=O)O)CSSC[C@@H](C(=O)O)NC(=O)[C@@H]2CCCN2C(=O)[C@@H]2CCCN2C(=O)[C@@H]2CCCN2C(=O)[C@H](CCCNC(=N)N)NC(=O)CNC(=O)[C@H](CO)NC(=O)[C@H](CO)NC(=O)[C@@H]2CCCN2C(=O)CNC(=O)CNC(=O)[C@H](CC(=O)O)NC(=O)[C@H](CCCCN)NC(=O)[C@H](CC(C)C)NC(=O)[C@H](Cc2c[nH]c3ccccc23)NC(=O)[C@H](CCC(N)=O)NC1=O [E5_SS] (H-EEECVRLYIQWLKDGGPSSGRPPPC-OH; disulfide 4-25) | 0.0363 M⁻¹ s⁻¹
3 | ≈84% | 138 h | 27.65 h | CC[C@H](C)[C@@H]1NC(=O)[C@H](Cc2ccc(O)cc2)NC(=O)[C@H](CC(C)C)NC(=O)[C@H](CCCNC(=N)N)NC(=O)[C@H](C(C)C)NC(=O)[C@@H](NC(=O)[C@H](CCC(=O)O)NC(=O)[C@H](CCC(=O)O)NC(=O)[C@H](CCC(=O)O)NC(=O)[C@H](CCSC)NC(=O)[C@H](CCC(N)=O)NC(=O)[C@H](CCCCN)NC(=O)[C@H](CO)NC(=O)[C@H](CC(C)C)NC(=O)[C@@H](N)CC(=O)O)CSSC[C@@H](C(=O)O)NC(=O)[C@@H]2CCCN2C(=O)[C@@H]2CCCN2C(=O)[C@@H]2CCCN2C(=O)[C@H](CCCNC(=N)N)NC(=O)CNC(=O)[C@H](CO)NC(=O)[C@H](CO)NC(=O)[C@@H]2CCCN2C(=O)CNC(=O)CNC(=O)[C@H](CC(=O)O)NC(=O)[C@H](CCCCN)NC(=O)[C@H](CC(C)C)NC(=O)[C@H](Cc2c[nH]c3ccccc23)NC(=O)[C@H](CCC(N)=O)NC1=O [E11_SS] (H-DLSKQMEEECVRLYIQWLKDGGPSSGRPPPC-OH; disulfide 10-31) | 0.00253 M⁻¹ s⁻¹

Reference: PMC7079008, “Compactness of Protein Folds Alters Disulfide‐Bond Reducibility by Three Orders of Magnitude: A Comprehensive Kinetic Case Study on the Reduction of Differently Sized Tryptophan Cage Model Proteins” (Chembiochem, 2019)
